Laboratory results taken from ChEMBL document CHEMBL4387701, “H2depda: An acyclic adjuvant potentiates meropenem activity in vitro against metallo-β-lactamase-producing enterobacterales” (Eur J Med Chem, 2019).
In brackets after ≈: the same amount, converted by molar mass. Activity calls are given as the source filed them. The rule behind the calls is not given here.

Experiments:
[1] = biological target: T1, Metallo-beta-lactamase NDM-4 (Escherichia coli) (UniProt H6WZS9); assay: Inhibition of NDM4 in Escherichia coli ATCC 25922 assessed as potentiation of meropenem-induced antibacterial activity by measuring zone of inhibition by agar disk diffusion method
T1 sequence (whole entry): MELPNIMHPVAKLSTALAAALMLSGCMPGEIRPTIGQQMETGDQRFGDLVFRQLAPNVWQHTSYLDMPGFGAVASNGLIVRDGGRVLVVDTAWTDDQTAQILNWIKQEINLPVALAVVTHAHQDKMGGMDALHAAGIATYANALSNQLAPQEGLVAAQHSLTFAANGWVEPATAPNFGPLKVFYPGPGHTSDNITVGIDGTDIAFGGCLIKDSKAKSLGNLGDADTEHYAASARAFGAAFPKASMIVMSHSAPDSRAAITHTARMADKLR

[2] = Inhibition of Stenotrophomonas maltophilia NDM1 expressed in Escherichia coli BL21 (DE3) expressing measured after 15 minutes at interval of 60 secs
[3] = test system: Escherichia coli ATCC 25922; assay: Inhibition of IMP-4 in Escherichia coli ATCC 25922 assessed as potentiation of meropenem-induced antibacterial activity by measuring zone of inhibition by agar disk diffusion method
Escherichia coli [4] = assay: Effect on growth of Escherichia coli isolate 18 after 24 hrs by broth microdilution method; type: organism-based
Escherichia coli [5] = assay: Effect on growth of Escherichia coli isolate 2 after 24 hrs by broth microdilution assay; type: organism-based
Enterobacter cloacae [6] = assay: Inhibition of NDM1 in Enterobacter cloacae isolate 4 assessed as potentiation of meropenem-induced antibacterial activity by measuring meropenem MIC after 24 hrs by broth microdilution assay (reference value: 640 ug/ml)
Escherichia coli [7] = assay: Effect on growth of Escherichia coli isolate 9 after 24 hrs by broth microdilution assay; type: organism-based
[8] = biological target: T1, Metallo-beta-lactamase NDM-4 (Escherichia coli); assay: Inhibition of NDM4 in Escherichia coli isolate 3 assessed as potentiation of meropenem-induced antibacterial activity by measuring meropenem MIC after 24 hrs by broth microdilution assay (reference value: 1280 ug/ml)
Enterobacter cloacae [9] = assay: Effect on growth of Enterobacter cloacae isolate 6 after 24 hrs by broth microdilution assay; type: organism-based
Klebsiella pneumoniae [10] = assay: Effect on growth of Klebsiella pneumoniae isolate 13 after 24 hrs by broth microdilution method; type: organism-based
Klebsiella pneumoniae [11] = assay: Inhibition of IMP4 in Klebsiella pneumoniae isolate 12 assessed as potentiation of meropenem-induced antibacterial activity by measuring meropenem MIC after 24 hrs by broth microdilution method (reference value: 16 ug/ml)
Klebsiella pneumoniae [12] = assay: Effect on growth of Klebsiella pneumoniae isolate 17 after 24 hrs by broth microdilution method; type: organism-based
Escherichia coli [13] = assay: Inhibition of IMP4 in Escherichia coli isolate 14 assessed as potentiation of meropenem-induced antibacterial activity by measuring meropenem MIC after 24 hrs by broth microdilution method (reference value: 16 ug/ml)
Klebsiella pneumoniae [14] = assay: Inhibition of IMP4 in Klebsiella pneumoniae isolate 10 assessed as potentiation of meropenem-induced antibacterial activity by measuring meropenem MIC after 24 hrs by broth microdilution method (reference value: 64 ug/ml)
Enterobacter cloacae [15] = assay: Inhibition of IMP4 in Enterobacter cloacae isolate 16 assessed as potentiation of meropenem-induced antibacterial activity by measuring meropenem MIC after 24 hrs by broth microdilution method (reference value: 64 ug/ml)
Klebsiella pneumoniae [16] = assay: Inhibition of IMP4 in Klebsiella pneumoniae isolate 17 assessed as potentiation of meropenem-induced antibacterial activity by measuring meropenem MIC after 24 hrs by broth microdilution method (reference value: 32 ug/ml)
Enterobacter cloacae [17] = assay: Effect on growth of Enterobacter cloacae isolate 15 after 24 hrs by broth microdilution method; type: organism-based
Escherichia coli [18] = assay: Inhibition of IMP4 in Escherichia coli isolate 11 assessed as potentiation of meropenem-induced antibacterial activity by measuring meropenem MIC after 24 hrs by broth microdilution method (reference value: 32 ug/ml)
Proteus mirabilis [19] = assay: Inhibition of IMP4 in Proteus mirabilis isolate 19 assessed as potentiation of meropenem-induced antibacterial activity by measuring meropenem MIC after 24 hrs by broth microdilution method (reference value: 320 ug/ml)
Enterobacter cloacae [20] = assay: Inhibition of NDM1 in Enterobacter cloacae isolate 6 assessed as potentiation of meropenem-induced antibacterial activity by measuring meropenem MIC after 24 hrs by broth microdilution assay (reference value: 320 ug/ml)
Enterobacter cloacae [21] = assay: Effect on growth of Enterobacter cloacae isolate 5 after 24 hrs by broth microdilution assay; type: organism-based
Escherichia coli [22] = assay: Effect on growth of Escherichia coli isolate 14 after 24 hrs by broth microdilution method; type: organism-based
[23] = biological target: T1, Metallo-beta-lactamase NDM-4 (Escherichia coli); assay: Inhibition of Escherichia coli NDM4 assessed as potentiation of meropenem-induced antibacterial activity by measuring reduction in bacterial growth at 64 ug/mL after 24 hrs by broth microdilution method relative to control
Escherichia coli [24] = assay: Effect on growth of Escherichia coli isolate 8 after 24 hrs by broth microdilution assay; type: organism-based
Klebsiella pneumoniae [25] = assay: Effect on growth of Klebsiella pneumoniae isolate 12 after 24 hrs by broth microdilution method; type: organism-based
Enterobacter cloacae [26] = assay: Effect on growth of Enterobacter cloacae isolate 4 after 24 hrs by broth microdilution assay; type: organism-based
Escherichia coli [27] = assay: Effect on growth of Escherichia coli isolate 3 after 24 hrs by broth microdilution assay; type: organism-based
Escherichia coli [28] = assay: Inhibition of NDM1 in Escherichia coli isolate 1 assessed as potentiation of meropenem-induced antibacterial activity by measuring meropenem MIC after 24 hrs by broth microdilution assay (reference value: 1280 ug/ml)
Citrobacter freundii = assay: Effect on growth of Citrobacter freundii isolate 7 after 24 hrs by broth microdilution assay; type: organism-based
Klebsiella pneumoniae [29] = assay: Effect on growth of Klebsiella pneumoniae isolate 10 after 24 hrs by broth microdilution method; type: organism-based
[30] = biological target: T1, Metallo-beta-lactamase NDM-4 (Escherichia coli); assay: Inhibition of NDM4 in Escherichia coli isolate 3 assessed as potentiation of meropenem-induced bactericidal activity at 4 times MIC incubated for 24 hrs followed by replating on agar plates for 16 to 18 hrs and measured up to 24 hrs by time kill assay
Escherichia coli [31] = assay: Inhibition of NDM-7 in Escherichia coli isolate 2 assessed as potentiation of meropenem-induced antibacterial activity by measuring meropenem MIC after 24 hrs by broth microdilution assay (reference value: 640 ug/ml)
Escherichia coli [32] = assay: Inhibition of IMP4 in Escherichia coli isolate 18 assessed as potentiation of meropenem-induced antibacterial activity by measuring meropenem MIC after 24 hrs by broth microdilution method (reference value: 16 ug/ml)
Escherichia coli [33] = assay: Effect on growth of Escherichia coli isolate 1 after 24 hrs by broth microdilution assay; type: organism-based
[34] = biological target: T1, Metallo-beta-lactamase NDM-4 (Escherichia coli); assay: Inhibition of Escherichia coli NDM4 assessed as potentiation of meropenem-induced antibacterial activity by measuring bacterial growth rate at 64 ug/mL after 24 hrs in presence of ZnCl2 by broth microdilution method relative to control
Enterobacter cloacae [35] = assay: Inhibition of IMP4 in Enterobacter cloacae isolate 15 assessed as potentiation of meropenem-induced antibacterial activity by measuring meropenem MIC after 24 hrs by broth microdilution method (reference value: 32 ug/ml)
Escherichia coli [36] = assay: Effect on growth of NDM4-positive Escherichia coli assessed as bacterial growth at 64 ug/mL after 24 hrs by broth microdilution method relative to control; type: organism-based
Enterobacter cloacae [37] = assay: Inhibition of NDM1 in Enterobacter cloacae isolate 5 assessed as potentiation of meropenem-induced antibacterial activity by measuring meropenem MIC after 24 hrs by broth microdilution assay (reference value: 640 ug/ml)
Escherichia coli [38] = assay: Effect on growth of Escherichia coli isolate 11 after 24 hrs by broth microdilution method; type: organism-based
Proteus mirabilis [39] = assay: Effect on growth of Proteus mirabilis isolate 19 after 24 hrs by broth microdilution method; type: organism-based
Escherichia coli [40] = assay: Inhibition of NDM1 in Escherichia coli isolate 8 assessed as potentiation of meropenem-induced antibacterial activity by measuring meropenem MIC after 24 hrs by broth microdilution assay (reference value: 320 ug/ml)
Enterobacter cloacae [41] = assay: Effect on growth of Enterobacter cloacae isolate 16 after 24 hrs by broth microdilution method; type: organism-based
Klebsiella pneumoniae [42] = assay: Inhibition of IMP4 in Klebsiella pneumoniae isolate 13 assessed as potentiation of meropenem-induced antibacterial activity by measuring meropenem MIC after 24 hrs by broth microdilution method (reference value: 320 ug/ml)
Escherichia coli [43] = assay: Effect on growth of NDM4-positive Escherichia coli assessed as bacterial growth at 0.03125 ug/mL after 24 hrs by broth microdilution method relative to control; type: functional

O=C(O)CN(CCN(CC(=O)O)CC(=O)O)CC(=O)O [EDETIC ACID]
inhibition zone (IZ) [1]: 18.2 mm
IC50 [2]: 8.47 µM
inhibition zone (IZ) [3]: 13.9 mm

O=C(O)CN1CCN(CC(=O)O)CCN(CC(=O)O)CC1
MIC (Escherichia coli [4]): 16 µg/mL (≈ 52.8 µM)
MIC (Escherichia coli [5]): 16 µg/mL (≈ 52.8 µM)
MIC (Enterobacter cloacae [6]): 0.125 µg/mL
MIC (Escherichia coli [7]): 16 µg/mL (≈ 52.8 µM)
MIC [8]: 0.25 µg/mL
MIC (Enterobacter cloacae [9]): 16 µg/mL (≈ 52.8 µM)
MIC (Klebsiella pneumoniae [10]): 16 µg/mL (≈ 52.8 µM)
MIC (Klebsiella pneumoniae [11]): 1 µg/mL
MIC (Klebsiella pneumoniae [12]): 16 µg/mL (≈ 52.8 µM)
MIC (Escherichia coli [13]): 4 µg/mL
MIC (Klebsiella pneumoniae [14]): 4 µg/mL
MIC (Enterobacter cloacae [15]): 2 µg/mL
MIC (Klebsiella pneumoniae [16]): 4 µg/mL
MIC (Enterobacter cloacae [17]): 16 µg/mL (≈ 52.8 µM)
MIC (Escherichia coli [18]): 1 µg/mL
MIC (Proteus mirabilis [19]): 4 µg/mL
MIC (Enterobacter cloacae [20]): 0.0312 µg/mL
MIC (Enterobacter cloacae [21]): 16 µg/mL (≈ 52.8 µM)
MIC (Escherichia coli [22]): 16 µg/mL (≈ 52.8 µM)
inhibition [23]: Active
MIC (Escherichia coli [24]): 16 µg/mL (≈ 52.8 µM)
MIC (Klebsiella pneumoniae [25]): 16 µg/mL (≈ 52.8 µM)
MIC (Enterobacter cloacae [26]): 16 µg/mL (≈ 52.8 µM)
MIC (Escherichia coli [27]): 16 µg/mL (≈ 52.8 µM)
MIC (Escherichia coli [28]): 0.0312 µg/mL
MIC (Citrobacter freundii): 16 µg/mL (≈ 52.8 µM)
MIC (Klebsiella pneumoniae [29]): 16 µg/mL (≈ 52.8 µM)
inhibition [30]: Active
MIC (Escherichia coli [31]): 0.25 µg/mL
MIC (Escherichia coli [32]): 2 µg/mL
MIC (Escherichia coli [33]): 16 µg/mL (≈ 52.8 µM)
inhibition [34]: 81%
MIC (Enterobacter cloacae [35]): 1 µg/mL
Activity (Escherichia coli [36]): 95%
MIC (Enterobacter cloacae [37]): 0.25 µg/mL
MIC (Escherichia coli [38]): 16 µg/mL (≈ 52.8 µM)
MIC (Proteus mirabilis [39]): 16 µg/mL (≈ 52.8 µM)
MIC (Escherichia coli [40]): 0.125 µg/mL
MIC (Enterobacter cloacae [41]): 16 µg/mL (≈ 52.8 µM)
MIC (Klebsiella pneumoniae [42]): 4 µg/mL

C[C@@H](O)[C@H]1C(=O)N2C(C(=O)O)=C(S[C@@H]3CN[C@H](C(=O)N(C)C)C3)[C@H](C)[C@H]12 [MEROPENEM]
Activity (Escherichia coli [43]): 95%
